# US7285621B2, “Multiple branch peptide construction” (Ambrilia Biopharma, priority 1999, dated 2007)
# What was measured:
# Type in all cases: cell-based
# [1] = system: HIV-1NL4-3; experiment: HIV-1NL4-3 infection of C8166 cells (syncytia formation, p24 ELISA); set-up: key to Syncytium formation: ++: number of syncytia present in the well were similar to that in control untreated well (35 to 40 syncitia per well); −: total absence of syncitia in the well; ±: presence of 1 to 3 syncitia in the well; settings: for Syncytium formation / P24: C8166 cells; for HIV inhibition characteristics: Table 3, C8166 cells
# Method: C8188 cells were infected with HIV to establish a baseline control. Similar C8188 cells were pretreated the invented MBPCs and then subjected to HIV to determine inhibition rates. The results are illustrated in FIGS. 1A, 1B and 2.
# Samples of 3×10^5 C8166 cells were placed in 96-well plates in a volume of 100 μl of culture medium containing various concentrations of peptide. After a one hour treatment at 37° C., 100 μl of viral solution of HIV-1NL4-3 were added. The cells were exposed to the virus of one hour at 37° C. at a multiplicity of infection of 1,000 TCID50 per ml. After through washing, cells were replaced in 1 ml of R10 with the treatment in 24-well plates and cultured in a 37° C. incubator. C8166 culture medium was replaced at day-4 post-infection. During this assay, treatment with peptide was permanent (before, during and after infection). Assays on C8166 cells have been performed at least twice and in duplicate. Toxicity was evaluated by daily cell count and trypan-blue exclusion assay. Infection of C8166 T-Cells with HIV-1NL4-3 was assessed by virus-induced cytopathic effect (syncytia formation) and by quantification of p24 viral protein in the culture supernatants. Measurements of HIV-1 p24^gag concentrations in the culture supernatants were achieved by ELISA, with a detection cut-off of 5 pg/ml (p24 HIV kit, NEN Dupont, Belgium; Quanti-Kine software, RILAB, Genova, Italy).
# [2] = system: HIV-1NL4-3; experiment: HIV-1NL4-3 infection of human PBLs/PBMCs (p24 ELISA); settings: 0.1 μM, FIG. 2
# Method: Human peripheral blood lymphocytes (PBLs) obtained from healthy HIV-seronegative donor (Etablissement Francais du Sang, Marseille, France) were isolated by ficoll-Hypaque gradient centrifugation. Cells were cultured in R10 medium supplemented with 20 units/ml of interleukin-2 (IL-2, Proleukin, Chiron, The Netherlands). R10 medium consists of RPMI 1640 supplemented with 2 mM ultraglutamine (BioWhittaker, Vervires, Belgium), penicillin (100 units/ml), streptomycin (100 μg/ml), and 10% heat-inactivated fetal calf serum (BioWhittaker). Cells were first stimulated with phytohemaggiutinin (20 μg/ml)-supplemented R10 (PHA P, DIFCO, Detroit, Mich., USA) for three days. Then, the medium was replaced with R10 supplemented with IL2 (20 units/ml), and subsequently cultures and experiments were carried out in this medium in a 37° C. humidified incubator with 5% CO2.
# Samples of 10^6 human PBLs were placed in 96-well plates in 100 μl of R10 containing various concentrations of peptide. After one hour treatment of 37° C., 100 μl of viral solution of HIV-1NL4-3 were added. The cells were exposed to the virus for one hour at 37° C. flushed with 5% CO2. The PBL culture medium was replaced every 3-4 days. The cell viability was assessed by cell counts and trypan-blue exclusion assay. The viral production in the culture supernatant was quantified by p24 ELISA test, as described supra. […]
# [3] = system: HIV-1 and HIV-2 viruses; experiment: In vitro inhibition of HIV-induced syncytium formation and infection of human lymphocytes; settings: HIV-1 and HIV-2 laboratory strains and clinical isolates
Substance,Syncytium formation ([1]; peptide 1 μm),Syncytium formation ([1]; peptide 10 μm),further results
(QGYSPL)2-K-βA [Peptide 5],± (presence of 1 to 3 syncitia in the well),−,
(RQG)2-K-βA [Peptide 4],± (presence of 1 to 3 syncitia in the well),−,
(RQGY)2-K-βA [Peptide 3],± (presence of 1 to 3 syncitia in the well),± (presence of 1 to 3 syncitia in the well),
(RQGY)8-(K)4-(K)2-K-βA-OH [(RQGY)8-K4-K2-K-βA],,,inhibition of syncytium formation and p24 production of HIV-infected cells ([1]; 5 μM): 100%
(RQGYS)2-K-βA-OH [Peptide 2],−,−,HIV inhibition characteristics [1]: superior HIV inhibition characteristics; P24 ([1]; peptide 1 μm): 0 pg/mL; P24 ([1]; peptide 10 μm): 0 pg/mL
(RQGYSP)2-K-βA [Peptide 1],,−,
(RQGYSPL)2-K-βA [Peptide 11],−,−,"viral activity relative to controls ([1]; 0.1 micro-molar (μm), FIG. 1, C8166 cells): one tenth that seen in controls; viral activity ([1]; 5 μm, FIG. 1, C8166 cells): virtually no activity; viral activity ([1]; 10 μm, FIG. 1, C8166 cells): no viral activity; inhibition of syncytium formation and p24 production ([1]; HIV-1NL403 infected C8166 cells, FIG. 1): marked inhibition; HIV inhibition characteristics [1]: superior HIV inhibition characteristics; P24 ([1]; peptide 1 μm): 0 pg/mL; P24 ([1]; peptide 10 μm): 0 pg/mL; inhibition of HIV-1NL403 infected PBMCs [2]: 100%"
(SPL)2-K-βA [Peptide 8],++ (number of syncytia present in the well were similar to that in control untreated well (35 to 40 syncitia per well)),± (presence of 1 to 3 syncitia in the well),
(YSPL)2-K-βA [Peptide 7],± (presence of 1 to 3 syncitia in the well),± (presence of 1 to 3 syncitia in the well),
RQGYSPL [monomeric RQGYSPL],,,"antiviral properties (HIV-induced syncytium formation, infection of human lymphocytes) [3]: inactive"
